This passage reports GI50 and TGI results from PubChem BioAssay (NCI).

Where “and” joins values, the source holds several entries; their conditions need not be identical. Identical values can stand only once.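 48-hour exposure; five concentrations; linearly interpolated endpoints. The concentration for 50% growth inhibition is given as GI50. TGI denotes the concentration required for complete inhibition of growth.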

What all share (experiment): NCI tumour cell line growth inhibition, 48 h
For assay [1], the system named is UACC-62 melanoma.
Assay [2] has as its system U251 CNS.
The subject of assay [3] is NCI-H226 lung.
Assay [4] deals with UO-31 renal.
Assay [5] relates to HCT-15 colon.
In assay [6] the test system is K-562 leukemia.
Assay [7] relates to HOP-92 NSCLC.
Assay [8] has as its system SNB-75 CNS.
The subject of assay [9] is 786-0 renal.
Assay [10] relates to SR leukemia.

For the molecule `COc1ccc(/C=C\c2cc(OC)c(OC)c(OC)c2)cc1OC`, the GI50 in [1] was 0.036 µM; in [2] it was 0.0975 µM; in assay [3] it was 0.297 µM; in assay [4] it was 0.805 µM; in assay [5] it was 0.0595 µM; in assay [6], 0.0329 µM. Moreover, the GI50 in assay [7] is 0.0473 µM; in [9], 0.616 µM; in assay [10], 0.0204 µM. For the same molecule, the TGI in assay [1] is 40.4 µM and > 100 µM; in [4] it was 40.4 µM and 50.3 µM; in assay [5] it was 40.4 µM and > 100 µM; in [6], 40.4 µM and 15.7 µM; in [7], 40.4 µM and 8.55 µM; in [8] it was 40.4 µM. In addition, the TGI in assay [9] is 40.4 µM and > 100 µM; in [10] it was 0.277 µM and 0.0612 µM.

As for `COC(=O)C1=C(c2cc(OC)c(OC)c(OC)c2)OC(c2ccc(OC)c(OC)c2)C1` (configuration not stated), the TGI in assay [1], in [2], in [3], in assay [4], in assay [5] and in assay [6] was above 100 µM each time. Also, the TGI in assay [7], in [8], in [9] and in assay [10] was above 100 µM throughout.
